# Data from patent US20240360114A1 (SIRONAX LTD., priority 2021, published 2024).
# Tested on: HT-1080 cells
# Assay: HT-1080 cell viability assay (ferroptosis induced by RSL3, Cell Titer-Glo)
# Format: cell-based
# Settings: Homo sapiens, HT-1080, 20 h, ferroptosis inducer RSL3, 20 hours, ferroptosis inhibitory activity, Table 2
# Summary of the method: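 EC50 fitted by sigmoidal dose-response regression on luminescent viability data normalized to untreated cells. Compounds ran as a 10-point, 3-fold series from 1.1 μM alongside RSL3 for 20 hours, after overnight seeding.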
row,Compound,EC50
1,"CC1CN(c2ccc(NC3CCC(C)(N)CC3)cc2F)CC(C)O1 (stereo not drawn) [Compound 458, N1-(4-(2,6-dimethylmorpholino)-3-fluorophenyl)-4-methylcyclohexane-1,4-diamine]",100 to 1000 nM
2,"NCC1CCC(Nc2ccc(C(F)(F)F)cc2)CC1 (stereo not drawn) [Compound 88, N-(4-(aminomethyl)cyclohexyl)-4-(trifluoromethyl)aniline]",1000 to 10000 nM
3,"NCCC1CCC(Nc2ccc3c(c2)CCC3)CC1 (stereo not drawn) [Compound 264, N-(4-(2-aminoethyl)cyclohexyl)-2,3-dihydro-1H-inden-5-amine]",0.1 to 100 nM
4,"COCCNC1CCC(Nc2ccc(C(C)(C)C)cc2)CC1 (stereo not drawn) [Compound 169, 1-N-(4-(tert-butyl)phenyl)-N4-(2-methoxyethyl)cyclohexane-1,4-diamine]",100 to 1000 nM
5,"Cc1cc(N2CC(C)OC(C)C2)ccc1NC[C@H]1CC[C@H](N)CC1 (stereo partly drawn) [Compound 387, N-(((1r,4r)-4-aminocyclohexyl)methyl)-4-(2,6-dimethylmorpholino)-2-methylaniline]",0.1 to 100 nM
6,Cc1nc(N2CC3COCC3C2)ccc1NC1CC2(CC(N)C2)C1 (stereo not drawn) [Compound 521],0.1 to 100 nM
7,"CC(C)(C)c1ccc(NC2CCC(NCCO)CC2)cc1 (stereo not drawn) [Compound 230, 2-((4-((4-(tert-butyl)phenyl)amino)cyclohexyl)amino)ethan-1-ol]",0.1 to 100 nM
8,"Cc1cc(NC2CCC(C)(N)CC2)cc(C)c1C (single isomer, unassigned) [Compound 313A, 1-methyl-N4-(3,4,5-trimethylphenyl)cyclohexane-1,4-diamine]",0.1 to 100 nM
9,"Cc1nc(N2CCOC(C)C2)ccc1NC1C2CC3CC1CC(N)(C3)C2 (stereo not drawn) [Compound 518, N4-(2-methyl-6-(2-methylmorpholino)pyridin-3-yl)adamantane-1,4-diamine]",0.1 to 100 nM
10,"Cc1nc(N2C[C@@H](C)N(CC(F)(F)F)[C@@H](C)C2)ccc1NC1C2CC3CC1CC(N)(C3)C2 (stereo partly drawn) [Compound 540, N4-(6-((3R,5S)-3,5-dimethyl-4-(2,2,2-trifluoroethyl)piperazin-1-yl)-2-methylpyridin-3-yl)adamantane-1,4-diamine]",0.1 to 100 nM
11,"COCCCCOc1cc(NC2CCC(N)C2)ccc1C(C)(C)C (stereo not drawn) [Compound 302, N1-(4-(tert-butyl)-3-(4-methoxybutoxy)phenyl)cyclopentane-1,3-diamine]",0.1 to 100 nM
12,"CC1(C)CCC(c2ccc(NC3CCC(CN)CC3)cn2)CC1 (stereo not drawn) [Compound 167, N-(4-(aminomethyl)cyclohexyl)-6-(4,4-dimethylcyclohexyl)pyridin-3-amine]",100 to 1000 nM
13,"Cc1nc(N2CCOC(C)C2)ccc1NC1C2CC3CC1CC(CN)(C3)C2 (stereo not drawn) [Compound 520, N-(5-(aminomethyl)adamantan-2-yl)-2-methyl-6-(2-methylmorpholino)pyridin-3-amine]",0.1 to 100 nM
14,"CCN1CC(C(=O)NCC2CCC(Nc3ccc(N4CCC(C(F)(F)F)CC4)cc3)CC2)CC1=O (stereo not drawn) [Compound 1, 1-ethyl-5-oxo-N-((4-((4-(4-(trifluoromethyl)piperidin-1-yl)phenyl)amino)cyclohexyl)methyl) pyr rolidine-3-carboxamide]",0.1 to 100 nM
15,"CC1(C)CCC(c2ccc(NC3CCC(CCN)CC3)cc2)CC1 (stereo not drawn) [Compound 118, N-(4-(2-aminoethyl)cyclohexyl)-4-(4,4-dimethylcyclohexyl)aniline]",0.1 to 100 nM
16,"CC(C)C1CCN(c2ncc(NC3CCC(C(N)=O)CC3)cn2)CC1 (stereo not drawn) [Compound 404, 4-((2-(4-isopropylpiperidin-1-yl)pyrimidin-5-yl)amino)cyclohexane-1-carboxamide]",0.1 to 100 nM
17,"CCCCCCOc1cc(NC2CCC(N)CC2)ccc1C(C)(C)C (stereo not drawn) [Compound 271, N1-(4-(tert-butyl)-3-(hexyloxy)phenyl)cyclohexane-1,4-diamine]",0.1 to 100 nM
18,"Cc1nc(N2CC(C)OC(C)C2)ccc1NC1CCC(N)CC1 (stereo not drawn) [Compound 443, N1-(6-(2,6-dimethylmorpholino)-2-methylpyridin-3-yl)cyclohexane-1,4-diamine]",100 to 1000 nM
19,"Cc1cc(N2CCC(C(F)(F)F)CC2)ccc1NCCCC[C@H]1CC[C@H](N)CC1 [Compound 447, N-(4-((1r,4s)-4-aminocyclohexyl)butyl)-2-methyl-4-(4-(trifluoromethyl)piperidin-1-yl)aniline]",0.1 to 100 nM
20,"NC(=O)C1CCC(Nc2ccc(N3CCC(C(F)(F)F)CC3)cc2)CC1 (stereo not drawn) [Compound 10, 4-((4-(4-(trifluoromethyl)piperidin-1-yl)phenyl)amino)cyclohexane-1-carboxamide]",0.1 to 100 nM
21,"CC(C)(C)c1ccc(NC2CCCC(N)C2)cc1 (single isomer, unassigned) [Compound 149A, N1-(4-(tert-butyl)phenyl)cyclohexane-1,3-diamine]",100 to 1000 nM
22,"NC1CCC(Nc2ccc(N3CCC(C(F)(F)F)CC3)cc2Cl)CC1 (stereo not drawn) [Compound 70, N1-(2-chloro-4-(4-(trifluoromethyl)piperidin-1-yl)phenyl)cyclohexane-1,4-diamine]",0.1 to 100 nM
23,"CC(C)(C)c1ccc(NC[C@H]2CC[C@H](N)CC2)cc1 [Compound 260, N-(((1r,4r)-4-aminocyclohexyl)methyl)-4-(tert-butyl)aniline]",0.1 to 100 nM
24,"Cc1nc(N2CCCOCC2)ccc1NC1CC2(CC(N)C2)C1 (stereo not drawn) [Compound 499, N2-(2-methyl-6-(1,4-oxazepan-4-yl)pyridin-3-yl)spiro[3.3]heptane-2,6-diamine]",100 to 1000 nM
25,"CCCCCc1ccc(NC2CCC(N)CC2)cc1 (stereo not drawn) [Compound 136, N1-(4-pentylphenyl)cyclohexane-1,4-diamine]",0.1 to 100 nM

# Same assay, conditions: Homo sapiens, HT-1080, 20 h, ferroptosis inducer RSL3, 20 hours, ferroptosis inhibitory activity, Table 3
row,Compound,EC50
1,"Cc1nc(N2CCC(C)(C)CC2)ccc1NC1CC2(CC(N)C2)C1 (stereo not drawn) [Compound 602, N2-(6-(4,4-dimethylpiperidin-1-yl)-2-methylpyridin-3-yl)spiro[3.3]heptane-2,6-diamine]",0.1 to 100 nM
2,"Cc1nc(N2CC(C)N(CC(F)(F)F)C(C)C2)ccc1NC1CC2CCC(C1)N2 (stereo not drawn) [Compound 643, N-(6-(3,5-dimethyl-4-(2,2,2-trifluoroethyl)piperazin-1-yl)-2-methylpyridin-3-yl)-8-azabicyclo[3.2.1]octan-3-amine]",0.1 to 100 nM
3,"Cc1nc(N(C)CCNCC(F)(F)F)ccc1NC1CC2(CC(N)C2)C1 (stereo not drawn) [Compound 616, N^5-(6-aminospiro [3.3]heptan-2-yl)-N^2,6-dimethyl-N2-(2-((2,2,2-trifluoroethyl)amino)ethyl) pyridine-2,5-diamine]",0.1 to 100 nM
4,"Cc1nc(N2CC(C)N(C(=O)C(F)(F)F)C(C)C2)ccc1NC1CC2CCC(C1)N2 (stereo not drawn) [Compound 642, 1-(4-(5-((8-azabicyclo[3.2.1]octan-3-yl)amino)-6-methylpyridin-2-yl)-2,6-dimethylpiperazin-1-yl)-2,2,2-trifluoroethan-1-one]",0.1 to 100 nM
5,"Cc1cc(NC(C)(C)C)ccc1NC[C@H]1CC[C@H](N)CC1 [Compound 597, N^1-(((1r,4r)-4-aminocyclohexyl)methyl)-N^4-(tert-butyl)-2-methylbenzene-1,4-diamine]",0.1 to 100 nM
6,"COCCNc1ccc2cc(NC3CC4(CC(N)C4)C3)ccc2c1 (stereo not drawn) [Compound 650, N2-(6-aminospiro [3.3]heptan-2-yl)-N6-(2-methoxyethyl) naphthalene-2,6-diamine]",0.1 to 100 nM

# Same assay, conditions: Homo sapiens, ferroptosis inducer RSL3, 20 hours, ferroptosis inhibitory activity, Table 2
row,Compound,EC50
1,"NC1CCC(Nc2ccc(C3CCC3)cc2)CC1 (stereo not drawn) [Compound 318A, 1-N-(4-cyclobutylphenyl)cyclohexane-1,4-diamine]",0.1 to 100 nM

# Same assay, conditions: ferroptosis inducer RSL3, 20 hours, ferroptosis inhibitory activity, Table 2
row,Compound,EC50
1,"CC(C)(C)c1ccc(NCC2CC(N)C2)cc1 (single isomer, unassigned) [Compound 335B, N-((3-aminocyclobutyl)methyl)-4-(tert-butyl)aniline]",0.1 to 100 nM
